In BindingDB's records for doi:10.1074/jbc.M109.038984 (Spanish National Cancer Research Center (Cnio), 2009):

Tests used:
Experiment in all cases: Kinase Assay
[1] = target: Phosphatidylinositol 4,5-bisphosphate 3-kinase catalytic subunit alpha isoform (Homo sapiens, UniProt P42336)
Description: (§1) Kinase assay using PI3K.

[2] = target: Phosphatidylinositol 4,5-bisphosphate 3-kinase catalytic subunit beta isoform (Homo sapiens, UniProt P42338)
Description: as §1

[3] = target: T1, Phosphatidylinositol 4,5-bisphosphate 3-kinase catalytic subunit delta isoform (Homo sapiens, UniProt O00329)
T1 sequence (O00329 whole entry): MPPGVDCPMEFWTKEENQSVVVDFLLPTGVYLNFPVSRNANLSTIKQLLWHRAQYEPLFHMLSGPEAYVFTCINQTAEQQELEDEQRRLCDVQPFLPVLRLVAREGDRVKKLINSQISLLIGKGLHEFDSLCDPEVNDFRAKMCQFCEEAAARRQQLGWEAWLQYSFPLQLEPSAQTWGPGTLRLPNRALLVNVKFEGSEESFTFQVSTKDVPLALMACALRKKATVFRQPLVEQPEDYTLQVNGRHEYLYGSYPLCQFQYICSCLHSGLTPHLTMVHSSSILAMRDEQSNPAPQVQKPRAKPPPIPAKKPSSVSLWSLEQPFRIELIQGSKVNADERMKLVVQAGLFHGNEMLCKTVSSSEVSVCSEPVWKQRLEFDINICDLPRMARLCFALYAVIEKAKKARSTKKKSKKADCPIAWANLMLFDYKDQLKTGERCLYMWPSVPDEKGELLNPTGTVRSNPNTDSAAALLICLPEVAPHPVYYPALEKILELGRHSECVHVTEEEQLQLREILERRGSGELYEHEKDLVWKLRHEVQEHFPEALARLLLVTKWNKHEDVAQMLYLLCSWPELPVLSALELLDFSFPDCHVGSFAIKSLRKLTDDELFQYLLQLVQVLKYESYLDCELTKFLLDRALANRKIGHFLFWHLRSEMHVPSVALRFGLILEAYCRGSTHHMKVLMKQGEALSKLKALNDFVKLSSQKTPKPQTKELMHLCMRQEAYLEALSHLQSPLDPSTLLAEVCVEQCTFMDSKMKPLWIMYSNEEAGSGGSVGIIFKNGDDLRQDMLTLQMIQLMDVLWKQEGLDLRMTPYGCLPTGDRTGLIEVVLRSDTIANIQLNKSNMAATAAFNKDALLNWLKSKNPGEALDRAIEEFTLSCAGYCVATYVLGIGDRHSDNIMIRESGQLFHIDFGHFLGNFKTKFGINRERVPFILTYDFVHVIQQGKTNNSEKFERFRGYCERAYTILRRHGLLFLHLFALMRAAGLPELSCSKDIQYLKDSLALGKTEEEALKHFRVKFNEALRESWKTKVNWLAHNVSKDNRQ
Description: as §1

[4] = target: Phosphatidylinositol 4,5-bisphosphate 3-kinase catalytic subunit gamma isoform (Homo sapiens, UniProt P48736)
Chain of Phosphatidylinositol 4,5-bisphosphate 3-kinase catalytic subunit gamma isoform (P48736 whole entry, canonical isoform): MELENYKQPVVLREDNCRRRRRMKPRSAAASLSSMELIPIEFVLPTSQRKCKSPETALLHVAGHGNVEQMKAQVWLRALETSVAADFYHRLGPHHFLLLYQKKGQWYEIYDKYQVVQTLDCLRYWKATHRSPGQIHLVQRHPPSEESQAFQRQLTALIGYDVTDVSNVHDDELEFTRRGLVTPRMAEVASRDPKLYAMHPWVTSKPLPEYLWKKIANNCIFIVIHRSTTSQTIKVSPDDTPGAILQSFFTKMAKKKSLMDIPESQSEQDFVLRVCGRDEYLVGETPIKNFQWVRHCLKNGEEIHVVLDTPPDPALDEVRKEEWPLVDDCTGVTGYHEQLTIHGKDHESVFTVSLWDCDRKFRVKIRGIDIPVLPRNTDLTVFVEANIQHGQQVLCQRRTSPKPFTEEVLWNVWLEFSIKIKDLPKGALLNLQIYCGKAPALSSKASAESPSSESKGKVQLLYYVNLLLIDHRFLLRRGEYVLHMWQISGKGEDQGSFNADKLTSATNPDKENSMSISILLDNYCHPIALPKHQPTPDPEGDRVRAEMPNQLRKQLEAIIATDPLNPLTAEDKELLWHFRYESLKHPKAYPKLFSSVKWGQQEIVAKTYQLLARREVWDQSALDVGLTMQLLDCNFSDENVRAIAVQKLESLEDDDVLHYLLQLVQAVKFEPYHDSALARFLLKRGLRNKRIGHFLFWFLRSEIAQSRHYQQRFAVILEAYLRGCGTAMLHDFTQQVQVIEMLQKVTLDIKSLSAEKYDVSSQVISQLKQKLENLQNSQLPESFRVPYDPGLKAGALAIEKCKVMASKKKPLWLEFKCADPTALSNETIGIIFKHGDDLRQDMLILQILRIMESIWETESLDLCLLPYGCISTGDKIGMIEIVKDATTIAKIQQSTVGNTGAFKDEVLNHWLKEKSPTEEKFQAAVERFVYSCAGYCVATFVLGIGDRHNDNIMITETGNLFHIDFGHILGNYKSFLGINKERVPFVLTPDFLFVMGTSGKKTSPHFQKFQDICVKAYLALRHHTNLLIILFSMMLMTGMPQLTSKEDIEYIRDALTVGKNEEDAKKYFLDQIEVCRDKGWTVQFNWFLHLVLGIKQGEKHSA
Description: as §1

Chain of Phosphatidylinositol 4,5-bisphosphate 3-kinase catalytic subunit alpha isoform (P42336 whole entry, canonical isoform): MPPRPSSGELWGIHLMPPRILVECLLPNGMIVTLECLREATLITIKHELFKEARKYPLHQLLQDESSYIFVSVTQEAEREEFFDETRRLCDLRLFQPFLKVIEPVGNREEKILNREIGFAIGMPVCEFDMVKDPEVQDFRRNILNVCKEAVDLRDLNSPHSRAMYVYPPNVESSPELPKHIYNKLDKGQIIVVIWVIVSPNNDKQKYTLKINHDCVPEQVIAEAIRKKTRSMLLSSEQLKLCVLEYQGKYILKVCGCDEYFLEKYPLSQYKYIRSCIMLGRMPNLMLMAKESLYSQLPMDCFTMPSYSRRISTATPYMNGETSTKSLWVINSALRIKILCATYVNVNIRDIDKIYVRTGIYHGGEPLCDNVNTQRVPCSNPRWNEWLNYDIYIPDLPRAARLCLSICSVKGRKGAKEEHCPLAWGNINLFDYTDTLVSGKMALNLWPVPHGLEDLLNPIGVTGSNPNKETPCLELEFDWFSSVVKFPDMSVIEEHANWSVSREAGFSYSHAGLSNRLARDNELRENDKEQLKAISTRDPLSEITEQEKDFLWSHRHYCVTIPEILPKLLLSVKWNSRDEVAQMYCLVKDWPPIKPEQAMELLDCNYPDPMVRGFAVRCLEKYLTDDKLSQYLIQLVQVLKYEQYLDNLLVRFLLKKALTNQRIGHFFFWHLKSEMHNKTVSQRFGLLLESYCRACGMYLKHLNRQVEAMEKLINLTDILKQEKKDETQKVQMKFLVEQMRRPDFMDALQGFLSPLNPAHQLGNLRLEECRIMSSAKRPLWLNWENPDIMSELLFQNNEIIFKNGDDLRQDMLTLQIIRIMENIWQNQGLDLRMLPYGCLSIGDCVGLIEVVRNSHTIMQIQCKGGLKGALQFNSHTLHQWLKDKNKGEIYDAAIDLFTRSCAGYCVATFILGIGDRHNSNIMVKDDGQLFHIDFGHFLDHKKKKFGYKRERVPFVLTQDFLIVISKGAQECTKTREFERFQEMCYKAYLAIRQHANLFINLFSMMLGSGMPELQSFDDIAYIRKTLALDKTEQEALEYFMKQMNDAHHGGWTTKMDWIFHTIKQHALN
Chain of Phosphatidylinositol 4,5-bisphosphate 3-kinase catalytic subunit beta isoform (P42338 whole entry, canonical isoform): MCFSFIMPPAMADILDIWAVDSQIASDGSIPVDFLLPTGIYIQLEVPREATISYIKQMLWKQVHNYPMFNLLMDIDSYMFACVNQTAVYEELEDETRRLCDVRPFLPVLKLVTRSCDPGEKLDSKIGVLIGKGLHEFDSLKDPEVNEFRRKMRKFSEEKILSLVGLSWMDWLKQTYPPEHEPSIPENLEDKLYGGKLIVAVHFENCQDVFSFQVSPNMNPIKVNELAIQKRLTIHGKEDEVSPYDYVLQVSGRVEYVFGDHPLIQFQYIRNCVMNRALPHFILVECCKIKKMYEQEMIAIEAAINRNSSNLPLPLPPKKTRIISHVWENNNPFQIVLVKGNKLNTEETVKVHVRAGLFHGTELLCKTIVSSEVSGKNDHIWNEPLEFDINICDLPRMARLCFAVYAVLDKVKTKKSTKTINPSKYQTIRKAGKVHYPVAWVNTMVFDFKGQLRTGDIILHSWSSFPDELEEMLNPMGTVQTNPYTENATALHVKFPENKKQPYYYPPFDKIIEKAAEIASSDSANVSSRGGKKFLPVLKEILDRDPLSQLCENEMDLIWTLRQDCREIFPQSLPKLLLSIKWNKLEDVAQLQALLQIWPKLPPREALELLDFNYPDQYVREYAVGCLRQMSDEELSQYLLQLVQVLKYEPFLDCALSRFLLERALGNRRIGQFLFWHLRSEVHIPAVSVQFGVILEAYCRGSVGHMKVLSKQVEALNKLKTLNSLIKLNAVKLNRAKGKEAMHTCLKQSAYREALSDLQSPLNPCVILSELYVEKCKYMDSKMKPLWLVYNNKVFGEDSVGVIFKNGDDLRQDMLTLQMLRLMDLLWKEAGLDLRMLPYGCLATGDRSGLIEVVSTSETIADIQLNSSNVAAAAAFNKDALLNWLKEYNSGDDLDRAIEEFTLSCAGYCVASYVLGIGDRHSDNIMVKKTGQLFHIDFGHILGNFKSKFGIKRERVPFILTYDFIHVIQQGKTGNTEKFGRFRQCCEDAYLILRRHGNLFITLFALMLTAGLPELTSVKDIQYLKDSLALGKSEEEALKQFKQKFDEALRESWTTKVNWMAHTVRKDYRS

Row | Structure (SMILES) | IC50 [1] | other results
1 | COc1cccc(Nc2nc(N3CCOCC3)nc3c2cnn3C)c1 | 0.4 µM | 
2 | CN1CCN(c2nc(Nc3cccc(Cl)c3)c3cnn(C)c3n2)CC1 [ETP-5935] | 4.9 µM | 
3 | CC1CN(c2nc(Nc3ccccc3)c3cnn(C)c3n2)CC(C)O1 (stereo unspecified) [ETP-6531] | 12.6 µM | 
4 | COc1cccc(Nc2nc(N3CCN(C)CC3)nc3c2cnn3C)c1 [ETP-7146] | 9.2 µM | 
5 | COc1cccc(Nc2nc(N3CCN(CCO)CC3)nc3c2cnn3C)c1 [ETP-8162] | 12.6 µM | 
6 | Cn1ncc2c(OCc3ccccc3)nc(N3CCOCC3)nc21 [ETP-45415, 3a] | 35.1 µM | 
7 | Cn1ncc2c(NCc3ccccc3)nc(N3CCOCC3)nc21 [ETP-45416, 3b] | 36.8 µM | 
8 | Cn1ncc2c(Oc3ccc(Cl)cc3)nc(N3CCOCC3)nc21 [ETP-45419, 3d] | 5.51 µM | 
9 | Cn1ncc2c(SCc3ccccc3)nc(N3CCOCC3)nc21 [ETP-45654, 3c] | > 50 µM | 
10 | Cn1ncc2c(N3CCOCC3)nc(-c3cccc(O)c3)nc21 [ETP-45658, 13] |  | IC50 [2]: 0.129 µM; IC50 [3]: 0.03 µM; IC50 [4]: 0.717 µM
11 | Cn1ncc2c(=O)[nH]c(N3CCOCC3)nc21 [ETP-45700, 6] | > 50 µM | 
12 | CC(C)Oc1nc(N2CCOCC2)nc2c1cnn2C [ETP-45797, 7] | 16.1 µM | 
13 | Cn1ncc2c(-c3cccc(O)c3)nc(N3CCOCC3)nc21 [ETP-45798, 9] | 0.114 µM | 
14 | Cn1ncc2c(-c3cccc(NS(C)(=O)=O)c3)nc(N3CCOCC3)nc21 [ETP-45799, 10] | 1.66 µM | 
15 | COC(=O)c1cccc(-c2nc(N3CCOCC3)c3cnn(C)c3n2)c1 [ETP-45867, 14] | 0.84 µM | 
16 | COc1cccc(-c2nc(N3CCOCC3)c3cnn(C)c3n2)c1 [ETP-45871, 15] | 5.8 µM | 
17 | Cc1cccc(Oc2nc(N3CCOCC3)nc3c2cnn3C)c1 [ETP-45874, 11] | 0.97 µM | 
18 | CSc1cccc(-c2nc(N3CCOCC3)c3cnn(C)c3n2)c1 [ETP-45875, 16] | 3.53 µM | 
19 | CC(=O)Nc1cccc(-c2nc(N3CCOCC3)c3cnn(C)c3n2)c1 [ETP-45876, 17] | 7 µM | 
